# Earlier results, collected in patent publication US20240307504A1, “INTRANASAL FORMULATIONS AND DELIVERY OF SOMATOSTATIN MIMETICS AND USES THEREOF” (NBO PHARMA LLC, priority 2021, published 2024).
# Read-outs that look alike come from different tables or passages of the source.
Compound,biological half-life (after intravenous administration),biological half-life (after subcutaneous administration),biological half-life (in vivo)
C[C@@H](O)[C@@H]1NC(=O)[C@H](CCCCN)NC(=O)[C@@H](Cc2c[nH]c3ccccc23)NC(=O)[C@H](Cc2ccccc2)NC(=O)[C@@H](NC(=O)[C@H](N)Cc2ccccc2)CSSC[C@@H](C(=O)N[C@H](CO)[C@@H](C)O)NC1=O [Octreotide],72 minutes,102 minutes,–
L-alanyl-glycyl-L-cysteinyl-L-lysyl-L-asparagyl-L-phenylalanyl-L-phenylalanyl-L-tryptophyl-L-lysyl-L-threonyl-L-phenylalanyl-L-threonyl-L-seryl-L-cysteine (3->14)-disulfide [somatostatin],–,–,2-3 minutes
